This note sets out measurements from patent US11691989B2, “Macrocyclic indoles as Mcl-1 inhibitors” (ASCENTAGE PHARMA (SUZHOU) CO., LTD., priority 2018, dated 2023).

The target of data set [1] is Mcl-1 protein (residues 171-323) (Homo sapiens (Human), UniProt Q07820). As to the kind of experiment: Inhibition of Mcl-1 by fluorescence polarization (FP) competitive binding assay with FAM-Bid tracer. The conditions noted are these: 2 nM FAM-Bid, 20 nM Mcl-1, 30 min, read-out: Mc1-1 (FP). The method, then: Inhibition of Mcl-1 by fluorescence polarization (FP) assay.
Mcl-1 protein (residues 171-323), sequence (Q07820 171-323): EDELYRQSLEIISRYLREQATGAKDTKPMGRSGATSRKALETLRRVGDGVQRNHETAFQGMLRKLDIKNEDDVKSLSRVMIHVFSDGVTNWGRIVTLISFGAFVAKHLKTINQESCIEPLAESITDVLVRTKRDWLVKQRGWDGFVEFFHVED
The method used a fluorescein labelled peptide (FAM-Bid) which binds to the Mcl-1 protein leading to an increased anisotropy measured in milli-polarization (mP) values using a plate reader.
A 10-points serial dilution of each compound was prepared in DMSO and 5 μL solution was transferred into flat bottomed, 96-well back plate (final DMSO concentration 5%). 120 μL of Buffer (PBS, 0.01% BGG (Sigma Cat. #SRE0011), 0.01% Triton X-100), containing the Fluorescein labelled peptide (Final concentration 2 nM) and Mcl-1 protein (final concentration 20 nM) was then added. […] 10-points dose response curves were plotted with GraphPad software using Sigmoidal Dose-Response Model and the IC50 values were determined by nonlinear regression fitting of the competition curves.

In a further data set the test system is OPM-2 cells. As to the kind of experiment: Cell viability assay (OPM-2 cells), CCK-8. The format is cell-based. As to conditions: 5% FBS. The procedure: Cell Viability Assay (OPM-2 cells)
OPM-2 cells were obtained from Deutsche Sammlung von Mikroorganismen and Zellkulturen GmbH (DSMZ). Cells were maintained in the recommended culture medium with 10% FBS at 37° C. and an atmosphere of 5% CO2.
The effect of representative Compounds of the Disclosure on cell viability was determined using Cell Counting Kit-8 (CCK-8) assay (Shanghai Life iLab Bio Technology) according to the manufacturer's instructions. Each tested compound was serially diluted in culture medium, 100 μL of the compound dilution was added into 96-well plates. 100 μL of an OPM-2 cell suspension (20000 cells/well) in culture medium were seeded into the corresponding well of the plate and the cells were incubated at 37° C. in an atmosphere of 5% CO2 for 24 hours. In the next day, 20 μL of CCK-8 solution was added to each well of the plate and incubated for 4 hours.
The plates were read at 450 nm on the microplate spectrophotometer (SpectraMax plus 384, Molecular devices). The readings were normalized to the vehicle cells, and the IC50 was calculated by nonlinear regression analysis using GraphPad Prism 6 software.

The next data set relates to NCI-H929 cells. As to the kind of experiment: Cell viability assay (NCI-H929 cells), CCK-8. The format is cell-based. The conditions noted are these: 5% FBS. The method, then: Cell Viability Assay (NCI-H929 cells)
NCI-H929 cells were obtained from American Type Culture Collection (ATCC). Cells were maintained in the recommended culture medium (RPMI 1640) with 10% FBS and 0.05 mM BME at 37° C. and an atmosphere of 5% CO2.
The effect of Compounds on cell viability was determined using Cell Counting Kit-8 (CCK-8) assay according to the manufacturer's instructions. 95 μL of NCI-H929 cell suspension (20000 cells/well) in culture medium were seeded into 96-well plates and cultured 4 hrs. Each tested compound was serially diluted in DMSO, then 5 μL of the compound or DMSO was diluted in 95 μL medium once more. At last, 5 μL of the compound dilution was added to the corresponding well of the cell plate. After the addition of the tested compound, the cells were incubated at 37° C. in an atmosphere of 5% CO2 for 24 hrs. At the end, 10 μL of CCK-8 solution was added to each well of the plate and incubated for 1-4 hours. The plates were read at 450 nm on the microplate reader (BioTek Synergy 1MF). The readings were normalized to the vehicle cells, and the IC50 was calculated by nonlinear regression analysis using GraphPad Prism 6 software.

The nature of data set [2]: Microsome clearance assay, mouse. The conditions noted are these: 0.5 mg/ml protein, 1 mM NADPH, 60 minutes. Type of data set: in vitro ADME. The method, then: (§1) Representative Compounds of the Disclosure were tested in a microsome clearance assay. Pooled liver microsomes (20 mg/ml) from human, male Wister rat, and male CD-1 mouse were obtained from BD Bioscience (Franklin Lakes, N.J. USA). Incubation reaction mixtures contained a final concentration of 0.1M sodium phosphate buffer (pH 7.4), 0.5 mg/ml microsomal protein, 5 μM of test sample and 1 mM NADPH in a total volume of 400 μl. The incubations were done for 60 minutes and 300 μl of the mixtures was transferred to 150 μl of ice cold methanol to terminate reactions. After vortexes for 3 minutes and centrifuged at 4000 rpm at 4° C. for 10 minutes, the clear supernatant was used directly for analysis. The samples were analyzed by Applied Biosystems API 3200 Q TRAP LC/MS/MS system using electrospray ionization mode.

Data set [3] in a line: Microsome clearance assay, rat. The format is in vitro ADME. As to conditions: 0.5 mg/ml protein, 1 mM NADPH, 60 minutes. The method, then:
as §1

Data set [4] in a line: Microsome clearance assay, human. Type of data set: in vitro ADME. The conditions noted are these: 0.5 mg/ml protein, 1 mM NADPH, 60 minutes. The procedure:
as §1

pIC50: −log10 of the molar value.

In the case of `Cc1c(C(=O)O)n2c3ccc(Cl)c(c13)-c1c(nn(C)c1C)CSCc1cc(n(C)n1)CSc1cc(c3ccc(F)cc3c1)OCCC2` (atropisomer, axis not shown) [Cpd. No. 16, (S)-(Z)-1^5-chloro-9^6-fluoro-1^3,2^1,2^5,6^1-tetramethyl-1^111,2^1H,6^1H-10-oxa-4,8-dithia-1(4,1)-indola-2(4,3),6(3,5)-dipyrazola-9(3,1)-naphthalenacyclotridecaphane-1^2-carboxylic acid], the pIC50 in data set [1] was 5.49; in the data set on OPM-2 cells (24 hours), 5.39; in the data set on NCI-H929 cells (24 hrs) it was 5.65. Also, the “Mouse Liver Microsome Clint (μL/min/mg protein)” value in data set [2] (mouse liver microsomes, 5 μM) stood at 135 μL/min/mg protein. For the same molecule, the “Rat Liver Microsome Clint (μL/min/mg protein)” value in data set [3] (rat liver microsomes, 5 μM) was 64.6 μL/min/mg protein. Further, the “Human Liver Microsome Clint (μL/min/mg protein)” value in data set [4] (human liver microsomes, 5 μM) was determined as 23.4 μL/min/mg protein.
Turning to `Cc1c(C(=O)O)n2c3ccc(Cl)c(c13)-c1c(nn(C)c1C)CSCc1cc(n(C(C)C)n1)CSc1cc(c3ccc(F)cc3c1)OCCC2` [Cpd. No. 17, (Z)-1^5-chloro-9^6-fluoro-6^1-isopropyl-1^3,2^1,2^5-trimethyl-1^1H,2^1H,6^1H-10-oxa-4,8-dithia-1(4,1)-indola-2(4,3),6(3,5)-dipyrazola-9(3,1)-naphthalenacyclotridecaphane-1^2-carboxylic acid], the pIC50 in the data set with OPM-2 cells (Homo sapiens, OPM-2, 24 h) is 7.03; in the data set with NCI-H929 cells (Homo sapiens, NCI-H929, 24 h), 7.11. In addition, the microsomal CLint at 5 μM in data set [2] (male, CD-1, mouse, pooled liver microsomes, pH 7.4, mouse liver microsomes, read-out: Mouse Liver Microsome Clint (μL/min/mg protein)) is 29.2 µL/min/mg; in data set [3] (male, Wister, rat, pooled liver microsomes, pH 7.4, rat liver microsomes, read-out: Rat Liver Microsome Clint (μL/min/mg protein)), 46.6 µL/min/mg; in data set [4] (human, pooled liver microsomes, pH 7.4, human liver microsomes, read-out: Human Liver Microsome Clint (μL/min/mg protein)), 19.4 µL/min/mg.
`Cc1c(C(=O)O)n2c3ccc(Cl)c(c13)-c1c(nn(C)c1C)CN(C(=O)c1ccccn1)Cc1cc(n(C)n1)CSc1cc(c3ccc(F)cc3c1)OCCC2` [Cpd. No. 42, (Z)-1^5-chloro-9^6-fluoro-1^3,2^1,2^5,6^1-tetramethyl-4-picolinoyl-1^1H,2^1H,6^1H-10-oxa-8-thia-4-aza-1 (4,1)-indola-2(4,3),6(3,5)-dipyrazola-9(3,1)-naphthalenacyclotridecaphane-1^2-carboxylic acid]: the pIC50 in data set [1] was 7.66; with OPM-2 cells (Homo sapiens, OPM-2, 24 h) it was 5.82; in the data set on NCI-H929 cells (Homo sapiens, NCI-H929, 24 h), 6.11.
`Cc1c(C(=O)O)n2c3ccc(Cl)c(c13)-c1c(nn(C)c1C)CN(C(=O)c1ncco1)Cc1cc(n(C)n1)CSc1cc(c3ccc(F)cc3c1)OCCC2` [Cpd. No. 43, (Z)-1^5-chloro-9^6-fluoro-1^3,2^1,2^5,6^1-tetramethyl-4-(oxazole-2-carbonyl)-1^1H,2^1H,6^1H-10-oxa-8-thia-4-aza-1(4,1)-indola-2(4,3),6(3,5)-dipyrazola-9(3,1)-naphthalenacyclotridecaphane-1^2-carboxylic acid]: the pIC50 in data set [1] was 7.66; in the data set on OPM-2 cells (Homo sapiens, OPM-2, 24 h), 5.90; in the data set with NCI-H929 cells (Homo sapiens, NCI-H929, 24 h), 6.21.
Take `Cc1c(C(=O)O)n2c3ccc(Cl)c(c13)-c1c(nn(C)c1C)CN(C(=O)c1nccn1C)Cc1cc(n(C)n1)CSc1cc(c3ccc(F)cc3c1)OCCC2` [Cpd. No. 44, (Z)-1^5-chloro-9^6-fluoro-1^3,2^1,2^5,6^1-tetramethyl-4-(1-methyl-1H-imidazole-2-carbonyl)-1^1H,2^1H,6^1H-10-oxa-8-thia-4-aza-1(4,1)-indola-2(4,3),6(3,5)-dipyrazola-9(3,1)-naphthalenacyclotridecaphane-1^2-carboxylic acid]: the pIC50 in data set [1] is 7.64; with OPM-2 cells (Homo sapiens, OPM-2, 24 h) it was 5.94; in the data set with NCI-H929 cells (Homo sapiens, NCI-H929, 24 h), 6.11.
Turning to `Cc1c(C(=O)O)n2c3ccc(Cl)c(c13)-c1c(nn(C)c1C)CN(S(=O)(=O)C(F)(F)F)Cc1cc(n(C)n1)CSc1cc(c3ccccc3c1)OCCC2` [Cpd. No. 47, (Z)-1^5-chloro-1^3,2^1,2^5,6^1-tetramethyl-4-((trifluoromethyl)sulfonyl)-1^1H,2^1H,6^1H-10-oxa-8-thia-4-aza-1(4,1)-indola-2(4,3),6(3,5)-dipyrazola-9(3,1)-naphthalenacyclotridecaphane-1^2-carboxylic acid], the pIC50 in data set [1] was 8.30; in the data set on OPM-2 cells (Homo sapiens, OPM-2, 24 h) it was 6.64; with NCI-H929 cells (Homo sapiens, NCI-H929, 24 h) it was 6.77.
`Cc1nn(C)c2c1-c1c(Cl)ccc3c1c(C)c(C(=O)O)n3CCCOc1cc(cc3ccccc13)SCc1cc(nn1C)CN(S(C)(=O)=O)C2` [Cpd. No. 48, (Z)-1^5-chloro-1^3,2^1,2^3,6^1-tetramethyl-4-(methylsulfonyl)-1^1H,2^1H,6^1H-10-oxa-8-thia-4-aza-1(4,1)-indola-2(4,5),6(3,5)-dipyrazola-9(3,1)-naphthalenacyclotridecaphane-1^2-carboxylic acid]: the pIC50 in data set [1] is 7.92; in the data set with OPM-2 cells (Homo sapiens, OPM-2, 24 h) it was 6.23; with NCI-H929 cells (Homo sapiens, NCI-H929, 24 h) it was 6.61.
`Cc1c(C(=O)O)n2c3ccc(Cl)c(c13)-c1c(nn(C)c1C)CN(CC(=O)N(C)C)Cc1cc(n(C)n1)CSc1cc(c3ccc(F)cc3c1)OCCC2` [Cpd. No. 54, (Z)-1^5-chloro-4-(2-(dimethylamino)-2-oxoethyl)-9^6-fluoro-1^3,2^1,2^5, 6^1--tetramethyl-1^1H,2^1H,6^1H-10-oxa-8-thia-4-aza-1(4,1)-indola-2(4,3),6(3,5)-dipyrazola-9(3,1)-naphthalenacyclotridecaphane-1^2-carboxylic acid]: the pIC50 in data set [1] is 7.57; in the data set on OPM-2 cells (Homo sapiens, OPM-2, 24 h), 5.46; with NCI-H929 cells (Homo sapiens, NCI-H929, 24 h) it was 6.17.
For `Cc1c(C(=O)O)n2c3ccc(Cl)c(c13)-c1c(nn(C)c1C)CN(c1ccccc1)Cc1cc(n(C)n1)CSc1cc(c3ccc(F)cc3c1)OCCC2` [Cpd. No. 55, (Z)-1^5-chloro-9^6-fluoro-1^3,2^1,2^5,6^1-tetramethyl-4-phenyl-1^1H,2^1H,6^1E-10-oxa-8-thia-4-aza-1(4,1)-indola-2(4,3),6(3,5)-dipyrazola-9(3,1)-naphthalenacyclotridecaphane-1^2-carboxylic acid], in that order: 7.62, 6.13 and 6.84.
Consider “(Z)-1^5-chloro-9^6-fluoro-1^3,2^1,2^3,6^1-tetramehtyl-4-(methylsulfonyl)-1^1H,2^1H,6^1H-10-oxa-8-thia-4-aza-1(4,1)-indola-2(4,5),6(3,5)-dipyrazola-9(3,1)- naphthalenacyclotridecaphane-1^2-carboxylic acid [Cpd. No. 49]”, for which the pIC50 in data set [1] was 8.30; in the data set on OPM-2 cells (24 hours) it was 6.51; in the data set on NCI-H929 cells (24 hrs), 6.69.
